Ends that are not written are not given here.
Experiments:
[1] = target: Neutravidin (Gallus gallus, UniProt P02701); test: LSPR competition assay: Neutravidin pre-incubated with HABA or biotin, then biotin-GNR conjugate; assay type: binding; conditions: for ΔRU as a function of the HABA and biotin concentration: fixed Neutravidin, biotin-GNR conjugate, final DMSO 5 w %, increasing concentration of added compound (FIG. 2)
Excerpt: Gold nanorods (GNRs) which are coated with mercaptoundecanoic acid (MUDA) were provided in suspension. The MUDA-coated GNRs provide an outer layer of carboxyl functional groups on their surface. For the conjugation of biotin to the GNRs, a biotin derivative (amino-PEG4-biotin) was used containing a polyethyleneglycol linker (4 monomers) having an amino functional group. More particularly, the carboxyl groups on the GNRs were activated using ethyl(dimethylaminopropyl) carbodiimide (EDC) and N-hydroxysuccinimide (NHS). Then, amino-PEG4-biotin was coupled via its amino functional group to the carboxyl groups provided on the GNRs, thereby providing a biotin-GNR conjugate. Potentially remaining unreacted carboxylic acid groups were blocked via reaction with 2-(2-aminoethoxy)ethanol (AEE). The biotin-GNR conjugate was purified from unreacted EDC, NHS, amino-PEG4-biotin and AEE by buffer exchange using a centrifugal ultrafiltration device.
The determination of the inhibition of the interaction between HABA and Neutravidin according to the methods described herein involves contacting the biotin-GNR conjugate with Neutravidin. The optimal amount of Neutravidin to be contacted with the conjugate was determined via titration. More particularly, a fixed amount of biotin-GNR was incubated with various concentrations of Neutravidin, and the absorbance spectra after incubation was recorded. ΔRU was calculated and plotted as a function of the Neutravidin concentration (FIG. 1). Suitable Neutravidin concentrations are determined as those concentrations which are sufficiently high to provide a detectable signal (ΔRU), provided that the signal is not in the plateau of the dose-response curve. Optimal concentrations are those providing a signal in the linear response range.
A fixed amount of Neutravidin was pre-incubated with different concentrations of HABA and biotin, followed by incubation with a fixed amount of biotin-GNR conjugate. HABA was provided as a solution in DMSO. […] The relative amounts of biotin-GNR and Neutravidin used are determined via titration as described above (A2). […]

[2] = target: MDM2 (Homo sapiens, UniProt Q00987); test: LSPR competition assay: MDM2 pre-incubated with nutlin-3 or p53, then p53-GNR conjugate; assay type: binding; conditions: fixed MDM2, p53-GNR conjugate; increasing concentration of added compound (FIGS. 4A and 4B)
MDM2, sequence (Q00987 whole entry, species assumed): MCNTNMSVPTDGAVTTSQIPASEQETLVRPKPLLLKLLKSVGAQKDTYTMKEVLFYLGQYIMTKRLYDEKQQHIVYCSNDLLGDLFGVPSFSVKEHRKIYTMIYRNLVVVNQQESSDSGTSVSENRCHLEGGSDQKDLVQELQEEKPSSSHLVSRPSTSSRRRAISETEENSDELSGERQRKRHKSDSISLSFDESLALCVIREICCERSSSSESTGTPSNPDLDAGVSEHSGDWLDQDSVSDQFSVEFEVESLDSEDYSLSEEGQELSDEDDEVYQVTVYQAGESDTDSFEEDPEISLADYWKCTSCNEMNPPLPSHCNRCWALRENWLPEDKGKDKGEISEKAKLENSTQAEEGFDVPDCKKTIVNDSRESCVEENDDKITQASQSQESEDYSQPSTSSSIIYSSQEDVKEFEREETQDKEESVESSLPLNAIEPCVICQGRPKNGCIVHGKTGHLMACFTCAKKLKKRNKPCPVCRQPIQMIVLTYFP
Procedure: The determination of the inhibition of the interaction between MDM2 and p53 according to the methods described herein involves contacting the p53-GNR conjugate with MDM2. The optimal amount of MDM2 to be contacted with the conjugate was determined via a similar titration experiment as described above for Neutravidin (A2). ΔRU was calculated and plotted as a function of the MDM2 concentration (FIG. 3).

Neutravidin, sequence (P02701 25-152): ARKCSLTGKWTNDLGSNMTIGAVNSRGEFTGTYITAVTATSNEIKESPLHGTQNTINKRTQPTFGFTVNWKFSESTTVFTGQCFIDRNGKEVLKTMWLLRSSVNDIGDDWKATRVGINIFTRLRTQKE

Molecule	ΔRU as a function of the HABA and biotin concentration [1]	relative affinity to Neutravidin ([1]; from concentration needed for significant reduction of ΔRU (FIG. 2))	ΔRU as a function of the added amount of nutlin-3 and p53 [2]
O=C(O)c1ccccc1N=Nc1ccc(O)cc1 [HABA, (2-(4-hydroxyazobenzene)benzoic acid)]	ΔRU decreases	lower affinity to Neutravidin than biotin	–
O=C(O)CCCC[C@@H]1SC[C@@H]2NC(=O)N[C@@H]21 [biotin]	ΔRU decreases	–	–
p53: p53 peptide (Sequence: CGSGSGSGSGSRFMDYWEGL); p53 protein also known as cellular tumor antigen p53 (also: conjugated to gold nanorods, site not given here)	–	–	ΔRU decreases

— US20170052177A1, “COMPETITION ASSAY” (PharmaDiagnostics NV, priority 2014, published 2017)
